The values that follow come from patent US10975057B2, “6-aminopyridin-3-yl pyrazoles as modulators of RORgT” (Janssen Pharmaceutica NV, priority 2018, dated 2021).

Molecules are shown by their SMILES.

Test [1] deals with IL-17 production by CD4 T cells. The test can be described thus: cells. The conditions noted are these: Homo sapiens, 72 h, read-out: Human Th17 Assay, IC50 (μM). The protocol: The human Th17 assay tests the effect of RORγt modulatory compounds on IL-17 production by CD4 T cells under conditions which favor Th17 differentiation. Total CD4^+ T cells were isolated from the peripheral blood mononuclear cells (PBMC) of healthy donors using a CD4^+ T cell isolation kit II, following the manufacturer's instructions (Miltenyi Biotec). […] 50 μL of compound at titrated concentrations in DMSO were added into each well at final DMSO concentration at 0.2%. Cells were incubated for 1 hour, then 50 μL of Th17 cell differentiation medium was added to each well. The final concentrations of antibodies and cytokines (R&D Systems) in differentiation medium were: 3×10^6/mL anti-CD3/CD28 beads (prepared using human T cell activation/expansion kit, Miltenyi Biotec), 10 μg/mL anti-IL4, 10 μg/mL anti-IFNγ, 10 ng/mL IL1β, 10 ng/mL IL23, 50 ng/mL IL6, 3 ng/mL TGFβ and 20 U/mL IL2. Cells were cultured at 37° C. and 5% CO2 for 3 days. Supernatants were collected and the accumulated IL-17 in culture was measured by using MULTI-SPOT® Cytokine Plate following manufacture's instruction (Meso Scale Discovery). The plate was read using Sector Imager 6000, and IL-17 concentration was extrapolated from the standard curve. The IC50s were determined by GraphPad.

Test [2] relates to Th17-dependent learned helplessness. To be noted: mice; cited from earlier work.
The test system of the next test is obese diabetic mice. The conditions noted are these: cited from earlier work.

In the case of `CCn1nc(C(=O)NC[C@]2(O)CC[C@@H](S(C)(=O)=O)CC2)c(C)c1-c1cnc(NC(C)(C)CC(F)(F)F)cc1OC(F)F` [Example 1, 5-(4-(Difluoromethoxy)-6-((4,4,4-trifluoro-2-methylbutan-2-yl)amino)pyridin-3-yl)-1-ethyl-N-(((1s,4s)-1-hydroxy-4-(methylsulfonyl)cyclohexyl)methyl)-4-methyl-1H-pyrazole-3-carboxamide], the IC50 in test [1] came to 0.0066 µM. As for `CCn1nc(C(=O)NC[C@]2(O)CC[C@@H](S(C)(=O)=O)CC2)c(Cl)c1-c1cnc(NC(C)(C)CC(F)(F)F)cc1OC(F)F` [Example 15, 4-Chloro-5-(4-(difluoromethoxy)-6-((4,4,4-trifluoro-2-methylbutan-2-yl)amino)pyridin-3-yl)-1-ethyl-N-(((1s,4s)-1-hydroxy-4-(methylsulfonyl)cyclohexyl)methyl)-1H-pyrazole-3-carboxamide], the IC50 in test [1] came out at 0.0062 µM.

For `CCn1nc(C(=O)NC[C@]2(O)CC[C@@H](S(C)(=O)=O)CC2)c(Cl)c1-c1cnc(NC(C)(C)CC(F)(F)F)cc1C(C)C` [Example 16, 4-Chloro-1-ethyl-N-(((1s,4s)-1-hydroxy-4-(methylsulfonyl)cyclohexyl)methyl)-5-(4-isopropyl-6-((4,4,4-trifluoro-2-methylbutan-2-yl)amino)pyridin-3-yl)-1H-pyrazole-3-carboxamide], the half-inhibitory concentration (IC50) in test [1] was found to be 0.017 µM. On the same count and under the same terms, the value for `CCc1cc(NC(C)(C)CC(F)(F)F)ncc1-c1c(Cl)c(C(=O)NC[C@]2(O)CC[C@@H](S(C)(=O)=O)CC2)nn1CC` [Example 18, 4-Chloro-1-ethyl-5-(4-ethyl-6-((4,4,4-trifluoro-2-methylbutan-2-yl)amino)pyridin-3-yl)-N-(((1s,4s)-1-hydroxy-4-(methylsulfonyl)cyclohexyl)methyl)-1H-pyrazole-3-carboxamide] was 0.0041 µM; that for `CCn1nc(C(=O)NC[C@]2(O)CC[C@@H](S(C)(=O)=O)CC2)c(Cl)c1-c1cnc(NC(C)(C)CC(F)(F)F)cc1OC` [Example 79, 4-Chloro-1-ethyl-N-(((1s,4s)-1-hydroxy-4-(methylsulfonyl)cyclohexyl)methyl)-5-(4-methoxy-6-((4,4,4-trifluoro-2-methylbutan-2-yl)amino)pyridin-3-yl)-1H-pyrazole-3-carboxamide] was 0.013 µM; that for `CCn1nc(C(=O)NC[C@]2(O)CC[C@@H](S(C)(=O)=O)CC2)c(Cl)c1-c1cnc(NC(C)(C)CC(F)(F)F)cc1C(F)F` [Example 97, 4-Chloro-5-(4-(difluoromethyl)-6-((4,4,4-trifluoro-2-methylbutan-2-yl)amino)pyridin-3-yl)-1-ethyl-N-(((1s,4s)-1-hydroxy-4-(methylsulfonyl)cyclohexyl)methyl)-1H-pyrazole-3-carboxamide] was 0.0033 µM. The same measure, in the same setting: the value for `CCn1nc(C(=O)NC[C@H]2CC[C@H](S(C)(=O)=O)CC2)c(Cl)c1-c1cnc(N[C@H](C)C(F)(F)F)cc1OC` [Example 98, 4-Chloro-1-ethyl-5-(4-methoxy-6-(((R)-1,1,1-trifluoropropan-2-yl)amino)pyridin-3-yl)-N-(((1r,4R)-4-(methylsulfonyl)cyclohexyl)methyl)-1H-pyrazole-3-carboxamide] was 0.14 µM. As to `CC(=O)Nc1nc(C)c(S(=O)(=O)Nc2ccc(C(O)(C(F)(F)F)C(F)(F)F)cc2)s1` [SR1001], in test [2], the Th17-dependent learned helplessness entry was “reduced Th17-dependent learned helplessness”. In the case of `CC(=O)N1CCN(Cc2ccc(-c3ccc(C(O)(C(F)(F)F)C(F)(F)F)cc3)cc2)CC1` [SR1555], in the test with obese diabetic mice, the body weight result was “reduced body weight”, the fat mass entry is given as “significant reduction in fat mass”, the food intake entry is “modest reduction in food intake” and the insulin sensitivity result is recorded as “improved insulin sensitivity”.

What is called IC50 is the concentration at which inhibition is half-maximal.
